{
  "source": "patent US11752152B1",
  "about": "“Pharmaceutical formulations of imatinib and uses thereof” (Exvastat Ltd, priority 2022, dated 2023)",
  "origin": "cited, not measured here",
  "system": "animal models of sepsis, acute lung injury and impaired microcirculatory perfusion",
  "details": "variety of animal models",
  "data": [
    {"smiles": "Cc1ccc(NC(=O)c2ccc(CN3CCN(C)CC3)cc2)cc1Nc1nccc(-c2cccnc2)n1", "note": "[Imatinib, 4-[(4-methylpiperazin-1-yl)methyl]-N-[4-methyl-3-[(4-pyridin-3-ylpyrimidin-2-yl)amino]phenyl]benzamide]", "values": [
      {"measurement": "effect on endothelial barrier, vascular leak and inflammation", "result": "protect the endothelial barrier, prevent vascular leak and reduce inflammation"}
    ]}
  ]
}
